# Measured values reported in US10016400B2, “Composition including rapamycin as active ingredient for preventing or treating hearing loss” (AJOU UNIVERSITY INDUSTRY—ACADEMIC COOPERATION FOUNDATION, priority 2014, dated 2018).
# Columns and labels:
# [1] = in vivo; cited from earlier work
# [2] = system: HEI-OC1 cells; assay: RPM effects on apoptosis, MTS assay; type: cell-based
# Protocol: (§1) An auditory cell line, e.g., House-Ear Institute-organ of Corti 1 (HEI-OC1), that expresses auditory genes was used. HEI-OC1 cells were cultured under conditions of a temperature of 33° C. and a CO2 (10%) by adding 10% fetal bovine serum (FBS) and 25 U/ml interferon-gamma to a Dulbecco's modified Eagle's Medium (DMEM) including high concentrations of glutamine. At about 90% confluence of the cultured cells on a bottom surface of a plate, the cell density was maintained within an appropriate range by performing serial subcultures using 2.5% Trypsin-EDTA.
# Here, RPM was used as an inducer of autophagy and chloroquine (CQ) was used as an inhibitor of autophagy in terms of pretreatment and combination treatment.
# [3] = system: auditory outer and inner hair cells; assay: Autophagy in cochlear hair cells, immunohistochemistry with LC3 antibodies; type: in vivo; conditions: GM treatment, rat cochleae
# Protocol: A total of 24 rats were classified into one group of 12 rats treated with 50 pM of rapamycin (RRM) and another group of 12 rats treated with 100 pM of RPM. […] To allow RPM to be well absorbed inside the tympanum, the rats were placed in a lateral decubitus position and stabilized. Meanwhile, rats of which right ears were treated with physiological saline were classified as a control group.
# To observe autophagy in the auditory outer hair cells, the cochleae of the rats of Example 1 were subjected to immunohistochemistry using microtubule-associated LC3 (Microtubule-associated protein 1A/1B-light chain 3) antibodies.
# [4] = system: HEI-OC1 cells; assay: Autophagy in auditory cell line (LC3 staining, western blot, real-time quantitative PCR); type: cell-based; conditions: HEI-OC1 cells treated with GM
# Protocol: as §1
# To observe autophagy in the GM-treated auditory cells, the HEI-OC1 cells, which are the auditory cell line of Example 1-2, were subjected to immunohistochemistry using LC3 antibody, thereby staining autophagosomes, the expression of autophagy-related proteins, e.g., LC3, Beclin-1, and RAS-related GTP-binding proteins (Rab7) was confirmed according to the western blot, and the processes of autophagy were analyzed through real-time quantitative PCR.
compound,measurement,setting,value
"CO[C@H]1C[C@@H]2CC[C@@H](C)[C@@](O)(O2)C(=O)C(=O)N2CCCC[C@H]2C(=O)O[C@H]([C@H](C)C[C@@H]2CC[C@@H](O)[C@H](OC)C2)CC(=O)[C@H](C)/C=C(\C)[C@@H](O)[C@@H](OC)C(=O)[C@H](C)C[C@H](C)/C=C/C=C/C=C/1C [RPM, rapamycin]",LD50 value (dose lethal to 50% of the population),[1],at least 2 g/kg
"CCN(CC)CCCC(C)Nc1ccnc2cc(Cl)ccc12 (centres unmarked) [CQ, chloroquine]",apoptosis with GM and autophagy inhibitor,[2]; 5 mM GM with 25 μM CQ,more likely to be undergone the apoptosis
gentamicin [GM],autophagosomes having a double membrane in auditory outer and inner hair cells,[3],increase in autophagosomes
same,number of autophagosomes,[4],increased over time
same,HEI-OC1 cells undergone apoptosis,[2]; 5 mM of GM for 48 hours,about 25%
